Assay results published in US9056840B2, “Coelenterazine analogues and coelenteramide analogues” (JNC Corporation, priority 2010, dated 2015).
Entries after “also recorded” stand apart in the source; their conditions may differ.

Legend:
Gaussia luciferase = assay: Substrate specificity and luminescence activity of Gaussia luciferase; type: biochemical; conditions: measured for 10 seconds, coelenterazine = 100
Protocol: Gaussia luciferase was purified by the method described in Japanese Patent Application KOKAI No. 2008-099669 and provided for use. After 1 μl of Gaussia luciferase (0.024 mg/ml) was dissolved in 100 μl of phosphate buffered saline (manufactured by Sigma Inc.) containing 0.01% Tween 20 (manufactured by Sigma Inc.) and 10 mM EDTA, 1 μl of a solution of coelenterazine or its analogue (1 μg/μl) in ethanol was mixed with the solution to start the luminescence reaction. The luminescence activity was measured for 10 seconds on a luminometer luminescencer-PSN AB2200 (manufactured by Atto Co., Ltd.). The luminescence activity was determined by repeating the measurement described above 3 times and expressed in terms of the maximum luminescence intensity (Imax) of luminescence activity.

apoaequorin [1] = molecular target: T1, apoaequorin (Aequorea victoria, UniProt P07164); assay: Fluorescence spectra of fluorescent proteins formed from semi-synthetic aequorins by Ca2+; type: physicochemical; conditions: for Maximum fluorescence wavelength λmax (nm) / Relative fluorescence intensity (rlu): fluorescent protein generated by calcium from semi-synthetic aequorin, excitation 330 nm, 25° C.; for fluorescence spectra of fluorescent proteins versus emission spectra of semi-synthetic aequorins, in words: same coelenterazine analogue
T1 construct: purchased Chisso Corporation
Protocol: The fluorescence spectra of novel fluorescent proteins formed by the Ca^2+-triggerd reaction from semi-synthetic aequorins in EXAMPLE 3 were measured at 25° C. in a quartz cell (10 mm light path length) using a Jasco FP-6500 spectrofluorometer (excitation wavelength: 330 nm, emission/excitation bandwidth: 3 nm; response: 0.5 sec, scan speed, 1000 nm/min). The fluorescence spectra measured were corrected.

apoaequorin [2] = molecular target: T1, apoaequorin; assay: Luminescence spectra of semi-synthetic aequorins; type: biochemical; conditions: semi-synthetic aequorin, calcium added, 22 to 25° C.
Protocol: In a quartz cell with light path length of 10 mm, 1 ml of 50 mM Tris-HCl (pH 7.6) containing 1 mM EDTA and 100 μl (100 μg protein) of a solution of the regenerated semi-synthetic aequorin were charged. Next, 100 μl of 50 mM Tris-HCl (pH 7.6) containing 0.1 ml of 10 mM calcium chloride solution was added thereto to start the luminescence reaction. The spectra were measured on a spectrofluorimeter (FP-6500, manufactured by Jasco Co., Ltd.) with the excitation light source turned off. The measurement conditions were bandwidth: 20 nm, response: 0.5 second, scan speed: 2000 nm/min and 22 to 25° C. The luminescence spectra measured were corrected.

[3] = molecular target: T2, 19 kDa protein from Oplophorus luciferase (Oplophorus gracilirostris, UniProt Q9GV45); assay: Substrate specificity and luminescence activity of the 19 kDa protein from Oplophorus luciferase; type: biochemical; conditions: measured for 60 seconds, coelenterazine = 100
T2 construct: made in house
Protocol: The 19 kDa protein from Oplophorus luciferase was purified by the method described in Inouye, S. and Sasaki, S., Protein Express. Purif. (2007) 56: 261-268 and provided for use.
(§1) After 1 μl of the 19 kDa protein (2.3 mg/ml) from Oplophorus luciferase containing 1 mM DTT was dissolved in 100 μl of 30 mM Tris-HCl (pH 7.6) containing 10 mM EDTA, 1 μl of a solution of coelenterazine or its analogue (1 μg/μl) in ethanol was added to the solution to start the luminescence reaction, and the luminescence activity was measured for 60 seconds on a luminometer luminescencer-PSN AB2200 (manufactured by Atto Co., Ltd.). The luminescence activity was determined by repeating the measurement described above 3 times and expressed in terms of the maximum luminescence intensity (Imax) of luminescence activity.

apoaequorin [4] = molecular target: T1, apoaequorin; assay: Luminescence patterns of semi-synthetic aequorins, half decay time; type: biochemical; conditions: for Half decay time: semi-synthetic aequorin, time in which luminescence becomes half of maximum, patterns measured for 60 seconds
Protocol: A solution of the regenerated semi-synthetic aequorin was diluted to 10-fold with 20 mM Tris-HCl (pH 7.6) containing 0.1% BSA (manufactured by Sigma, Inc.), 0.01 mM EDTA and 150 mM NaCl. The dilution was dispensed into a 96-well microplate (Nunc #236108) at 5 μl/well. The luminescence reaction was triggered by injecting 50 mM Tris-HCl (pH 7.6) containing 50 mM calcium chloride solution at 100 μl/well. The luminescence patterns for 60 seconds were measured to determine half decay time of the luminescence (a time period in which the luminescence becomes half of the maximum luminescence intensity).

apoaequorin [5] = molecular target: T1, apoaequorin; assay: Calcium standard curve with semi-synthetic aequorins; type: biochemical; conditions: FIG. 3; Imax versus calcium concentration
Protocol: In 9 ml of 50 mM Tris-HCl (pH 7.6), 1 ml of 1 g/L calcium carbonate standard solution (manufactured by Wako Pure Chemicals) was diluted to prepare 10^−3 M calcium carbonate solution. One milliliter of the resulting 10^−3 M calcium carbonate solution was taken and added to 9 ml of 50 mM Tris-HCl (pH 7.6) to prepare 10^−4 M calcium carbonate solution. Next, 3 ml of the resulting 10^−4 M calcium carbonate solution was taken and added to 6 ml of 50 mM Tris-HCl (pH 7.6) to prepare […] calcium carbonate solution. One milliliter from the 10^−4 M calcium carbonate solution obtained was added to 9 ml of 50 mM Tris-HCl (pH 7.6) to prepare 10^−5 M calcium carbonate solution. Then, 3 ml of the resulting 10^−5 M calcium carbonate solution was taken and added to 6 ml of 50 mM Tris-HCl (pH 7.6) to prepare 3×10^−5 M calcium carbonate solution. A dilution series was prepared by successively repeating the procedures described above to give the 10^−3 M to 10^−8 M calcium standard solutions.
In 5 ml of 50 mM Tris-HCl (pH 7.6) containing 10 mM DTT and 30 mM EDTA, 5 mg of recombinant apoaequorin (manufactured by Chisso Corporation) was dissolved and 100 μg of coelenterazine analogue dissolved in ethanol in an amount of 1.2-fold equivalent was added to the solution. The mixture was allowed to stand at 4° C. overnight to convert into semi-synthetic aequorin. The resulting semi-synthetic aequorin was concentrated using Amicon Ultra-4 (manufactured by Millipore, Inc., molecular weight cut-off: 10,000) to remove an excessive of coelenterazine analogue. The mixture was then washed 3 times with 3 ml of 30 mM Tris-HCl (pH 7.6) containing 0.05 mM EDTA to give the solution of semi-synthetic aequorin containing 0.05 mM EDTA. This semi-synthetic aequorin solution (2.5 mg/ml) was diluted with 20 mM Tris-HCl (pH 7.6) containing 0.1% BSA (manufactured by Sigma), 0.01 mM EDTA and 150 mM NaCl.
The calcium standard solution prepared as above was dispensed into a 96-well microplate (Nunc #236108) at 50 μl/well and 10 μl of the diluted semi-synthetic aequorin solution was injected into 50 μl of various concentration of calcium standard solution. The luminescence intensity was measured for 60 seconds on a luminescence plate reader Centro LB960 (manufactured by Berthold) and expressed in terms of the maximum intensity (Imax) of luminescence. The luminescence intensity was measured on each semi-synthetic aequorin in the same procedures. Semi-synthetic aequorins for practically use were chosen by the maximum intensity (Imax) of luminescence and the calcium standard curve of semi-synthetic aequorin was prepared.

Renilla luciferase = molecular target: T3, Renilla luciferase (Renilla reniformis, UniProt P27652); assay: Substrate specificity and luminescence activity of Renilla luciferase; type: biochemical; conditions: measured for 10 seconds, coelenterazine = 100
T3 construct: made in house
T3 sequence (P27652 1-311): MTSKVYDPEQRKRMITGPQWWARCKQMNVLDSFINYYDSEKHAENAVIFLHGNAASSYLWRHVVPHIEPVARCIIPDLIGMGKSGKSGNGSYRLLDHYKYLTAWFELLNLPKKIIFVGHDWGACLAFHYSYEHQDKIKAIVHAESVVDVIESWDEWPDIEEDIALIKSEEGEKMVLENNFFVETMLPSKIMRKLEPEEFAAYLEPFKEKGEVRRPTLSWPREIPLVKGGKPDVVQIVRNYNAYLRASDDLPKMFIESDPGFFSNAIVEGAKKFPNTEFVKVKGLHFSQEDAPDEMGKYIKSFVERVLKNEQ
Protocol: Renilla luciferase was purified by the method described in Inouye, S. & Shimomura, O. Biochem. Biophys. Res. Commun. (1997) 233: 349-353, and used for assay.
as §1, with “Renilla luciferase (0.45” for “the 19 kDa protein (2.3”, “mg/ml)” for “mg/ml) from Oplophorus luciferase containing 1 mM DTT”, “reaction. The” for “reaction, and the”, “10” for “60”, “measurement of luminescence activity” for “measurement”

T2 sequence (Q9GV45 28-196): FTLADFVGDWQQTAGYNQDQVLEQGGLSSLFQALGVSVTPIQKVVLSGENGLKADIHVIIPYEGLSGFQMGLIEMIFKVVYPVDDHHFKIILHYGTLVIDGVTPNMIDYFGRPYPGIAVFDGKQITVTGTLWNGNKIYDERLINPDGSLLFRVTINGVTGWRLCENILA
T1 sequence (P07164 other isoform, or with tags, fused parts or gaps with the stated changes): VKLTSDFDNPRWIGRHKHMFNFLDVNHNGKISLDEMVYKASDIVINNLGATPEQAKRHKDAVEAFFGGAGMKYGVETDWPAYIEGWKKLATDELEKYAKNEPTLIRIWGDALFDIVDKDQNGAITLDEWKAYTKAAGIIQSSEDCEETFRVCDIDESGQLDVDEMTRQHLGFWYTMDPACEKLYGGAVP

SMILES	Luminescence activity Imax (%) (Gaussia luciferase)	Maximum fluorescence wavelength λmax (nm) (apoaequorin [1])	Relative fluorescence intensity (rlu) (apoaequorin [1])	fluorescence spectra of fluorescent proteins versus emission spectra of semi-synthetic aequorins, in words (apoaequorin [1])	Maximum luminescence wavelength λmax (nm) (apoaequorin [2])	Luminescence activity Imax (%) [3] [%]	half decay time of luminescence compared to coelenterazine (native aequorin), in words (apoaequorin [4])	Half decay time (apoaequorin [4]) [s]	calcium standard curve with semi-synthetic aequorin, in words (apoaequorin [5])	Luminescence activity Imax (%) (Renilla luciferase)
O=c1c(Cc2ccc(O)cc2)nc2c(-c3cccs3)[nH]c(-c3ccc(O)cc3)cn1-2 [Compound 3f, 2-(4-Hydroxybenzyl)-6-(4-hydroxyphenyl)-8-(thiophen-2-yl)imidazo[1,2-α]pyrazin-3(7H)-one]	0.00	525.0	38.5	different luminescence spectra and fluorescence spectra	515.0	0.1	markedly prolonged; also recorded: longer half decay time	>60	calcium standard curve can be prepared	0.00
O=c1c(Cc2ccc(O)cc2)nc2c(-c3cc4ccccc4s3)[nH]c(-c3ccc(O)cc3)cn1-2 [Compound 3h, 8-(Benzo[b]thiophen-2-yl)-2-(4-hydroxybenzyl)-6-(4-hydroxyphenyl)imidazo[1,2-a]pyrazin-3(7H)-one]	0.00	537.0	58.7	different luminescence spectra and fluorescence spectra	532.5	0.07	longer half decay time	1.71	calcium standard curve can be prepared	0.00
O=c1c(Cc2ccc(O)cc2)nc2c(-c3ccc(O)cc3)[nH]c(-c3ccc(O)cc3)cn1-2 [Compound 3j, 2-(4-Hydroxybenzyl)-6,8-bis(4-hydroxyphenyl)imidazo[1,2-a]pyrazin-3(7H)-one]	0.01	580.0	13.3	markedly different; also recorded: different luminescence spectra and fluorescence spectra	457.5	0.2	markedly prolonged; also recorded: longer half decay time	16.8	calcium standard curve can be prepared	0.03
